Like-named read-outs stand apart in the source and are kept apart here.
What was measured:
[1] = biological target: CDK7/cyclinH/MAT1 trimeric complex (Homo sapiens, UniProt P50613); experiment: In vitro CDK7 assay, potency of irreversible covalent inhibitors (kinact/KI), coupled PK/LDH ADP readout at 340 nm; details: for Ki: CDK7 (20 nM enz.) (KI, μM); for kinact: read-out: CDK7 (20 nM enz.) (kinact, s^−1), 20 nM enzyme
[2] = tested on: RNA Polymerase II Serine 5 phosphorylation in A549 cells overexpressing CDK7-mutant (C312S); experiment: Imaging-based cellular RNA PolII Ser5 phosphorylation assay in A549 cells overexpressing CDK7-mutant (C312S); type: cell-based, human; details: RNA PolII Ser5 phosphorylation, averaged over all measurements; for IC50: Homo sapiens, A549, A549 cells overexpressing CDK7-mutant (C312S), read-out: CDK7_A549 mutant hCDK7(pIC50) (converted)
How it was run: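 Readout was automated imaging of anti-phospho-Ser5 Rpb1 CTD immunofluorescence, with IC50 fitted to % control versus concentration. Cells were A549 stably overexpressing non-covalently targetable CDK7 C312S alongside wild-type, exposed to compound 3 h at 37 °C. DMSO and 10 μM reference compound served as controls.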

[3] = tested on: RNA Polymerase II Serine 5 phosphorylation (Rpb1 CTD, downstream substrate of CDK7) in A549 cells; experiment: Imaging-based cellular RNA PolII Ser5 phosphorylation assay in A549 cells; type: cell-based, human; details: wild-type CDK7, RNA PolII Ser5 phosphorylation, averaged over all measurements; for IC50: Homo sapiens, A549, A549 cells, read-out: CDK7_A549 Wild-type CDK7 (pIC50) (converted)
How it was run: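 IC50 derived by fitting % control (DMSO high, 10 μM reference low) against concentration, with Hill slope. Readout: high-content imaging of phospho-Ser5 Rpb1 CTD antibody staining in fixed, permeabilized A549 cells exposed to compound 3 h after 20 h culture in 1% FBS DMEM.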

[4] = read-out: CDK7 (20 nM enz.) (kinact/KI, M^−1*s^−1), 20 nM enzyme
[5] = read-out: CDK7 (20 nM enz.) (kobs/[I], M^−1*s^−1), 20 nM enzyme

CDK7/cyclinH/MAT1 trimeric complex, sequence (P50613 whole entry): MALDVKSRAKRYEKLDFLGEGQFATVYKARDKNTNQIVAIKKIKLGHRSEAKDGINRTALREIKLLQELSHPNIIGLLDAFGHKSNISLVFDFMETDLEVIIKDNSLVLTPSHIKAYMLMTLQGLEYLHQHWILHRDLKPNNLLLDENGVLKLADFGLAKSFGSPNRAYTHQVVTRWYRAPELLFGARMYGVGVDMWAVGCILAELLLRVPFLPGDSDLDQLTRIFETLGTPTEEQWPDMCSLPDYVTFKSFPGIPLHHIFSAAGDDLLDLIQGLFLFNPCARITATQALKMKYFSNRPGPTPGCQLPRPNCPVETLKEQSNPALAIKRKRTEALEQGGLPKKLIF
CDK7/cyclinH/MAT1 trimeric complex, sequence (P51946 whole entry partner): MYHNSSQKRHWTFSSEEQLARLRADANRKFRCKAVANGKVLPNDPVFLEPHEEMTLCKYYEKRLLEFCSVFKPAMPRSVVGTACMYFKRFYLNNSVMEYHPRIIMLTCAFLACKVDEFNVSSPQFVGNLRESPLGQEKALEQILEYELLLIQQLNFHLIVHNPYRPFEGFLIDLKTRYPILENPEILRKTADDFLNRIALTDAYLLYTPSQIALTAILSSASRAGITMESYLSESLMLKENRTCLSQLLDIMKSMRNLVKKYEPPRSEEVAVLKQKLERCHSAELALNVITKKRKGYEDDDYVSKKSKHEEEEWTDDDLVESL
CDK7/cyclinH/MAT1 trimeric complex, sequence (P51948 whole entry partner): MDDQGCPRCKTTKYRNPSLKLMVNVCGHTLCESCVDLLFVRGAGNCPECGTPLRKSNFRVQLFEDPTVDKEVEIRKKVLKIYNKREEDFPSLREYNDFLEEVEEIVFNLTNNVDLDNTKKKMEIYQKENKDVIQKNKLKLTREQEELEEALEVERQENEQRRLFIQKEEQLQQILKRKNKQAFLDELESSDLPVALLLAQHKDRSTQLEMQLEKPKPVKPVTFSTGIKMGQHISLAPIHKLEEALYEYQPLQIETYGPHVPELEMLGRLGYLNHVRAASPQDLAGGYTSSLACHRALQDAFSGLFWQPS

| Ki ([1]; 20 nM enzyme) [µM] | kinact [1] [s⁻¹] | kinact/KI [1, 4] [M⁻¹ s⁻¹] | IC50 [2] [µM] | IC50 [3] [µM] | CDK7 (20 nM enz.) (kinact/KI, M^−1*s^−1) ([1]; 20 nM enzyme) [M⁻¹ s⁻¹] | CDK7_A549 mutant hCDK7(pIC50) ([2]; A549 cells overexpressing CDK7-mutant (C312S)) | CDK7_A549 Wild-type CDK7 (pIC50) ([3]; A549 cells) | kinact/KI [1, 5] [M⁻¹ s⁻¹] | kinact/KI ([1]; read-out: CDK7 (kinact/KI, M^−1*s^−1), potency of irreversible covalent inhibitors, 1 mM ATP, room temperature, averaged values over all measurements) [M⁻¹ s⁻¹] | Compound |
| --- | --- | --- | --- | --- | --- | --- | --- | --- | --- | --- |
| 3.64 | 3.28e-05 | 9.02 | > 10 | 7.08 | – | – | – | – | – | CC#CC(=O)N1CC[C@H](N2CC(c3cc4c(c(C5CC5)n3)O[C@H](C)c3c(N5CCOCC5)ccnc3N4)C2)C1 (single isomer, unassigned) [Compound 471] |
| 19.2 | 6.89e-05 | 3.59 | > 10 | 5.25 | – | – | – | – | – | C=CC(=O)N1CC[C@H](N2CC(c3cc4c(c(C)n3)O[C@@H](C)c3c(N5CCOCC5)ccnc3N4)C2)C1 (single isomer, unassigned) [Compound 458] |
| – | – | – | 4.37 | 0.0813 | – | – | – | 608 | – | C=CC(=O)N1CCC(N2CC(c3cc(Cl)c4c(c3)Nc3nccc(-c5cnn(C)c5)c3CO4)C2)CC1 [Compound 85] |
| 0.0372 | 5.38e-05 | 1440 | > 10 | 0.186 | – | – | – | – | – | C=CC(=O)N1CC(N2CC(c3ccc4c(c3)Nc3nccc(-c5cnn(C)c5)c3CO4)C2)C1 [Compound 176] |
| 0.683 | 4.07e-05 | 59.6 | > 10 | 0.692 | – | – | – | – | – | CC#CC(=O)N1CC[C@H](N2CC(c3cc(C)c4c(c3)Nc3nccc(N5CCOCC5)c3[C@H](C)O4)C2)C1 (single isomer, unassigned) [Compound 281] |
| – | – | – | > 10 | 0.447 | – | – | – | – | 486 | C=CC(=O)N1CC(N2CCC(c3ccc4c(c3)Nc3nccc(N5CCS(=O)(=O)CC5)c3CO4)CC2)C1 [Compound 9] |
| – | – | – | > 10 | 0.0708 | – | – | – | 1620 | – | C#Cc1cc(C2CCN(C3CN(C(=O)C=C)C3)CC2)cc2c1OCc1c(C3CCOCC3)ccnc1N2 [Compound 118] |
| 0.0075 | 3.26e-05 | 4340 | 4.07 | 0.0646 | – | – | – | – | – | CC#CC(=O)N1CCC(N2CC(c3cc4c(c(C#N)n3)O[C@@H](C)c3c(C5CCOCC5)ccnc3N4)C2)CC1 (single isomer, unassigned) [Compound 518] |

Second part, the molecule before the results:

| Compound | Ki ([1]; 20 nM enzyme) [µM] | kinact [1] [s⁻¹] | kinact/KI [1, 4] [M⁻¹ s⁻¹] | IC50 [2] [µM] | IC50 [3] [µM] | CDK7 (20 nM enz.) (kinact/KI, M^−1*s^−1) ([1]; 20 nM enzyme) [M⁻¹ s⁻¹] | CDK7_A549 mutant hCDK7(pIC50) ([2]; A549 cells overexpressing CDK7-mutant (C312S)) | CDK7_A549 Wild-type CDK7 (pIC50) ([3]; A549 cells) | kinact/KI [1, 5] [M⁻¹ s⁻¹] | kinact/KI ([1]; read-out: CDK7 (kinact/KI, M^−1*s^−1), potency of irreversible covalent inhibitors, 1 mM ATP, room temperature, averaged values over all measurements) [M⁻¹ s⁻¹] |
| --- | --- | --- | --- | --- | --- | --- | --- | --- | --- | --- |
| Cc1nc(C2CCN([C@H]3CCN(C(=O)/C=C/C(=O)O)C3)CC2)cc2c1OCc1c(-c3cnn(C)c3)ccnc1N2 (single isomer, unassigned) [Compound 332] | 4.85 | 2.19e-05 | 4.51 | > 10 | 7.59 | – | – | – | – | – |
| CC#CC(=O)N1CC(N2CCC(c3cc4c(c(C)n3)O[C@H](C)c3c(N5CCOCC5)ccnc3N4)CC2)C1 (single isomer, unassigned) [Compound 345] | 0.131 | 3.88e-05 | 296 | > 10 | 0.0871 | – | – | – | – | – |
| C=CC(=O)N1CC(N2CCC(c3cc(C)c4c(c3)Nc3nccc(C5CCOCC5)c3CO4)CC2)C1 [Compound 73] | – | – | – | – | – | 1301.8 | <5 | 7.32 | – | – |
| C#CCCN(C)C/C=C/C(=O)N1CC(N2CCC(c3ccc4c(c3)Nc3nccc(N5CCOCC5)c3[C@@H](C)O4)CC2)C1 (single isomer, unassigned) [Compound 191] | 3.09 | 4.72e-05 | 15.3 | > 10 | 4.37 | – | – | – | – | – |
| C=CC(=O)N1CC(N2CC(c3cc(C#N)c4c(c3)Nc3nccc(N5CCOCC5)c3CO4)C2)C1 [Compound 253] | – | – | – | 6.31 | 0.0501 | – | – | – | 989 | – |
| C=CC(=O)N1CC[C@H](N2CC(c3cc4c(c(C)n3)OCc3c(-c5cnn(C)c5)ccnc3N4)C2)[C@H](F)C1 (mixture of isomers) [Compound 213] | 0.267 | 4.9e-05 | 183 | > 10 | 0.251 | – | – | – | – | – |
| CC#CC(=O)N1CCC(N2CC(c3cc4c(c(C#N)n3)OCc3c(N5CCOCC5)ccnc3N4)C2)CC1 [Compound 385] | 0.0211 | 1.2e-05 | 570 | 4.27 | 0.158 | – | – | – | – | – |
